Reference: US20240319166A1, “Genetically-encoded volatile synthetic biomarkers for breath-based cancer detection” (The Board of Trustees of the Leland Stanford Junior …, priority 2021, published 2024)

How the values were obtained:
[1] = Quantitation of limonene evolution from limonene-injected mice (closed chamber, SIFT-MS); assay type: in vivo
Procedure: Having observed robust limonene expression in transfected HeLa cells in culture, the feasibility of detecting limonene in exhaled breath from rodents was then tested. A standard curve relating limonene concentration in chamber headspace to the quantity of limonene spiked into 0.5-L chambers was generated. To determine the fraction of limonene in mice that was emitted into the headspace, mice were injected intraperitoneally with different quantities of a limonene standard solution (from 0.01 μg to 1 mg) and individual mice were placed in a closed chamber for 15 minutes, at which point headspace limonene concentrations were measured by SIFT-MS (FIG. 4A and FIG. 4B).
Using the standard curve, the mass of limonene exhaled by mice at each quantity injected was determined and the fraction exhaled was calculated. At the LOD (0.5 ppb), limonene in the chamber headspace became detectable when 2.3 ng had been spiked into the chamber, whereas limonene evolving from mice only became detectable at an injected dose of 450 ng (FIG. 4B, Supplementary Calculations shown in Example 2, infra). […]
Prior to mouse studies, a calibration curve was generated. Known limonene quantities (10 μg to 100 μg) were added to 10 mL of water in […] (Kent Scientific, Torrington, CT). […]

[2] = cited from earlier work

For `C=C(C)[C@H]1CC=C(C)CC1` [limonene], the “fraction of injected limonene emitted into the chamber headspace” value ([1]; intraperitoneal injection, 0.5-L chamber, within 15 minutes) is listed as ~0.5%, the “injected dose at which limonene evolving from mice became detectable” value ([1]; intraperitoneal, at the LOD (0.5 ppb), 15 minutes) is listed as 450 ng and the safe oral dose [2] is listed as ≤ 100 mg/kg. For the same compound, the “safe oral dose for an average 70 kg adult” value [2] was ~7 g.
